Laboratory results taken from patent US20060093596A1, “Genomic approach to identification of novel broad-spectrum antimicrobial peptides from bony fish” (priority 2002, published 2006).
Where no end group is shown, it is not given here.

Tests used:
[1] = test system: Salmonella enterica s. Typhimurium MS4252S (C610, supersusceptible strain); assay type: cell-based; conditions: lowest peptide concentration inhibiting growth by at least 50%; Mueller-Hinton broth
Description: (§1) Most non-fish bacterial strains as well as Candida albicans were grown at 37° C. in Mueller-Hinton Broth (MHB; Difco Laboratories, Detroit), while the fish bacteria were maintained at 16° C. in Tryptic Soy Broth (TSB; Difco, 5g/l NaCl). All strains were stored at −70° C. until they were thawed for use and sub-cultured daily. The following strains, Pseudomonas aeruginosa K799 (parent of Z61), Pseudomonas aeruginosa Z61 (antibiotic supersusceptible), Salmonella typhimurium 14028s (parent of MS7953s), Salmonella typhimurium MS7953s (defensin supersusceptible), as well as Staphylococcus epidermidis (human clinical isolates) and methicillin-resistant Staphylococcus aureus (MRSA; isolated by Dr. A. Chow, University of British Columbia) have been kindly donated by Prof R. E. W. Hancock, University of British Columbia.
(§2) The activities of the antimicrobial peptides were determined as minimal inhibitory concentrations (MICs) using the microtitre broth dilution method of Amsterdam (Amsterdam, 1996), as modified by Wu and Hancock (1999). Serial dilutions of the peptide were made in water in 96-well polypropylene (Costar, Coming Incorporated, Coming, New York) microtiter plates. Bacteria or C. albicans were grown overnight to mid-logarithmic phase as described above, and diluted to give a final inoculum size of 10^6 cfu/ml. A suspension of bacteria or yeast was added to each well of a 96 well plate and incubated overnight at the appropriate temperature. […] Three repeats of each MIC determination were performed.

[2] = test system: Salmonella enterica s. Typhimurium 14028S (C587); assay type: cell-based; conditions: lowest peptide concentration inhibiting growth by at least 50%; Mueller-Hinton broth
Description: as §1, §2

[3] = test system: Pseudomonas aeruginosa K799 (H187); assay type: cell-based; conditions: lowest peptide concentration inhibiting growth by at least 50%; Mueller-Hinton broth
Description: as §1, §2

[4] = test system: Pseudomonas aeruginosa Z61 (H188, supersusceptible strain); assay type: cell-based; conditions: lowest peptide concentration inhibiting growth by at least 50%; Mueller-Hinton broth
Description: as §1, §2

[5] = test system: Escherichia coli C786, CGSC4908; assay type: cell-based; conditions: lowest peptide concentration inhibiting growth by at least 50%; supplemented Mueller-Hinton broth
Description: All strains were stored at −70° C. until they were thawed for use and sub-cultured daily.
Escherichia coli strain CGSC 4908 (his-67, thyA43, pyr-37), auxotrophic for thymidine, uridine, and L-histidine (Cohen et al., 1963) was kindly supplied, free of charge, by the E.coli Genetic Stock Centre (Yale University, New Haven, Conn.). MHB supplemented with 5 mg/L thymidine, 10 mg/L uridine and 20 mg/L L-histidine (Sigma Chemical Co., St. Louis, Mo.), was used to grow E.coli CGSC 4908 unless otherwise specified.
The activities of the antimicrobial peptides were determined as minimal inhibitory concentrations (MICs) using the microtitre broth dilution method of Amsterdam (Amsterdam, 1996), as modified by Wu and Hancock (1999). Serial dilutions of the peptide were made in water in 96-well polypropylene (Costar, Coming Incorporated, Coming, New York) microtiter plates. Bacteria or C. albicans were grown overnight to mid-logarithmic phase as described above, and diluted to give a final inoculum size of 10^6 cfu/ml. A suspension of bacteria or yeast was added to each well of a 96 well plate and incubated overnight at the appropriate temperature. In the case of E. coli CGSC 4908, supplemented MHB was used. […] Three repeats of each MIC determination were performed.

[6] = test system: Escherichia coli UB1005 (C498); assay type: cell-based; conditions: lowest peptide concentration inhibiting growth by at least 50%; Mueller-Hinton broth
Description: as §1, §2

[7] = test system: Escherichia coli DC2 (C500, outer membrane-permeable mutant); assay type: cell-based; conditions: lowest peptide concentration inhibiting growth by at least 50%; Mueller-Hinton broth
Description: as §1, §2

[8] = test system: bacterial pathogens and C. albicans; test: Spectrum of antimicrobial activity (MIC panel, overall); assay type: cell-based; conditions: summary of MIC results against bacteria and C. albicans
Description: Three repeats of each MIC determination were performed.
The minimal inhibitory concentrations of the chemically produced peptides against a wide range of baterial pathogens and C. albicans were determined and are shown in Table 9.

[9] = test system: Aeromonas salmonicida 99-1, A449
Description: (§3) Most non-fish bacterial strains as well as Candida albicans were grown at 37° C. in Mueller-Hinton Broth (MHB; Difco Laboratories, Detroit), while the fish bacteria were maintained at 16° C. in Tryptic Soy Broth (TSB; Difco, 5g/l NaCl).
(§4) Two field isolates of the salmonid pathogen Aeromonas salmonicida are from the IMB strain collection.
as §2

[10] = test system: Aeromonas salmonicida 97-4
Description: as §3, §4, §2

[11] = test system: Staphylococcus epidermidis C621 (clinical isolate)
Description: as §1, §2

[12] = test system: methicillin-resistant Staphylococcus aureus (MRSA) C623, SAP017; conditions: methicillin-resistant C623, SAP017
Description: as §1, §2

[13] = test system: Candida albicans C627, CALB105; conditions: C627, CALB105
Description: as §1, §2

Row | Substance | Minimal inhibitory concentration, S. typh MS4252s [1] | Minimal inhibitory concentration, S. typh 14028s [2] | Minimal inhibitory concentration, P. aeru K799 [3] | Minimal inhibitory concentration, P. aeru Z61 [4] | Minimal inhibitory concentration, E. coli C786 [5] | Minimal inhibitory concentration, E. coli UB1005 [6] | Minimal inhibitory concentration, E. coli DC2 [7] | antimicrobial activity, overall (in words) [8] | Minimal inhibitory concentration, A. sal 99-1 [9] | Minimal inhibitory concentration, A. sal 97-4 [10] | Minimal inhibitory concentration, S. epi C621 [11] | Minimal inhibitory concentration, MRSA C623 [12] | Minimal inhibitory concentration, C. alb C627 [13]
1 | FFRLLFHGVHHGGGYLNAA-NH2 [NRC-9] | 64 µg/mL | >64 µg/mL | >64 µg/mL | 64 µg/mL | 64 µg/mL | >64 µg/mL | >64 µg/mL | poor or no observed activities | >64 µg/mL | >64 µg/mL | >64 µg/mL | >64 µg/mL | >64 µg/mL
2 | GWKKWLRKGAKHLGQAAIKGLAS [NRC-17] | – | – | – | – | – | – | – | broad spectrum of antimicrobial activity | 2 µg/mL | 1 µg/mL | 32 µg/mL | 16 µg/mL | 8 µg/mL
3 | RSTEDIIKSISGGGFLNAMNA-NH2 [NRC-8] | >64 µg/mL | >64 µg/mL | >64 µg/mL | >64 µg/mL | >64 µg/mL | >64 µg/mL | >64 µg/mL | poor or no observed activities | >64 µg/mL | >64 µg/mL | >64 µg/mL | >64 µg/mL | >64 µg/mL
4 | GWKKWLRKGAKHLGQAAIK-NH2 [NRC-16] | 0.5 µg/mL | 16 µg/mL | 4 µg/mL | 1 µg/mL | 1 µg/mL | 2 µg/mL | 0.5 µg/mL | broad spectrum of antimicrobial activity | 2 µg/mL | 1 µg/mL | 16 µg/mL | 32 µg/mL | 8 µg/mL
5 | GWGSIFKHGRHAAKHIGHAAVNHYL-NH2 [NRC-6] | 4 µg/mL | 64 µg/mL | 16 µg/mL | 4 µg/mL | 4 µg/mL | 4 µg/mL | 2 µg/mL | – | 4 µg/mL | 4 µg/mL | >64 µg/mL | 32 µg/mL | 32 µg/mL
6 | FLGALIKGAIHGGRFIHGMIQNHH-NH2 [NRC-5] | 64 µg/mL | >64 µg/mL | >64 µg/mL | 32 µg/mL | 64 µg/mL | 64 µg/mL | >64 µg/mL | – | >64 µg/mL | >64 µg/mL | 32 µg/mL | 32 µg/mL | >64 µg/mL
7 | FLGLLFHGVHHVGKWIHGLIHGHH-NH2 [NRC-19] | 16 µg/mL | 64 µg/mL | 32 µg/mL | 8 µg/mL | 32 µg/mL | 16 µg/mL | 32 µg/mL | – | 64 µg/mL | >64 µg/mL | 8 µg/mL | 8 µg/mL | 64 µg/mL
8 | GRRKRKWLRRIGKGVKIIGGAALDHL-NH2 [NRC-3] | 2 µg/mL | 8 µg/mL | 2 µg/mL | 1 µg/mL | 2 µg/mL | 8 µg/mL | 2 µg/mL | – | 2 µg/mL | 4 µg/mL | 8 µg/mL | 8 µg/mL | 4 µg/mL
9 | WLRRIGKGVKIIGGAALDHL-NH2 [NRC-2] | 64 µg/mL | >64 µg/mL | 64 µg/mL | 32 µg/mL | 64 µg/mL | 64 µg/mL | 64 µg/mL | only marginally active | >128 µg/mL | 128 µg/mL | >64 µg/mL | >64 µg/mL | >64 µg/mL
10 | GWGSFFKKAAHVGKHVGKAALTHYL-NH2 [NRC-4] | 2 µg/mL | 16 µg/mL | 8 µg/mL | 4 µg/mL | 2 µg/mL | 4 µg/mL | 2 µg/mL | – | 2 µg/mL | 2 µg/mL | 8 µg/mL | 8 µg/mL | 8 µg/mL
11 | GWKKWFTKGERLSQRHFA [NRC-18] | – | – | – | – | – | – | – | – | >64 µg/mL | 128 µg/mL | >64 µg/mL | >64 µg/mL | >64 µg/mL
12 | GWKSVFRKAKKVGKTVGGLALDHYL-NH2 [NRC-11] | 4 µg/mL | 32 µg/mL | 32 µg/mL | 4 µg/mL | 4 µg/mL | 16 µg/mL | 4 µg/mL | broad spectrum of antimicrobial activity | 8 µg/mL | 8 µg/mL | 64 µg/mL | >64 µg/mL | 32 µg/mL
13 | AGWGSIFKHIFKAGKFIHGAIQAHND-NH2 [NRC-14] | 16 µg/mL | >64 µg/mL | 32 µg/mL | 8 µg/mL | 16 µg/mL | 16 µg/mL | 16 µg/mL | – | 32 µg/mL | 16 µg/mL | 16 µg/mL | 16 µg/mL | >64 µg/mL
14 | GFLGILFHGVHHGRKKALHMNSERRS [NRC-20] | – | – | – | – | – | – | – | – | >64 µg/mL | >64 µg/mL | >64 µg/mL | >64 µg/mL | >64 µg/mL
